Measurements published in PubChem BioAssay AID248 (DTP/NCI, 2004).
Inconclusive results and toxic doses are left out. Rule as the data show it: active = T/C of 150% or more; inactive = T/C below 125%.

Tested on: L1210 leukemia ip in BDF1 mice, survival T/C
Experiment: NCI In Vivo Anticancer Drug Screen. Data for tumor model L1210 Leukemia (intraperitoneal) in B6D2F1 (BDF1) mice
Conditions: endpoint: mean survival time, higher = longer survival
How it was run: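 In this screen, tumor-bearing mice given compound are compared to those given vehicle, and their survival values are reported as a treated-to-control quotient.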

[1] = dose: 50.0 mg/kg/injection, schedule: Q01DX009 (ip), vehicle: saline with Tween-80
[2] = dose: 100.0 mg/kg/injection, schedule: Q01DX009 (ip), vehicle: saline with Tween-80
[3] = dose: 200.0 mg/kg/injection, schedule: Q01DX009 (ip), vehicle: saline with Tween-80
[4] = dose: 100.0 mg/kg/injection, schedule: Q01DX001 (ip), vehicle: saline
[5] = dose: 100.0 mg/kg/injection, schedule: Q01DX009 (ip), vehicle: saline
[6] = dose: 200.0 mg/kg/injection, schedule: Q01DX001 (ip), vehicle: saline
[7] = dose: 200.0 mg/kg/injection, schedule: Q01DX009 (ip), vehicle: saline
[8] = dose: 400.0 mg/kg/injection, schedule: Q01DX001 (ip), vehicle: saline
[9] = dose: 400.0 mg/kg/injection, schedule: Q01DX009 (ip), vehicle: saline

Measured: T/C

CC(C)c1cc[n+]([O-])cc1
inactive: [1] 94 % of control | [2] 94 % of control | [3] 91 % of control

N#CCCc1c(O)ccc2ccccc12
inactive: [2] 105 % of control | [3] 102 % of control | dose: 400.0 mg/kg/injection, schedule: Q01DX009 (ip), vehicle: saline with Tween-80 105 % of control

CSc1ncc2cnccn12
inactive: dose: 25.0 mg/kg/injection, schedule: Q01DX009 (ip), vehicle: water 95 % of control | dose: 25.0 mg/kg/injection, schedule: Q04DX003 (ip), vehicle: saline 106 % of control | dose: 50.0 mg/kg/injection, schedule: Q01DX009 (ip), vehicle: water 102 % of control | dose: 50.0 mg/kg/injection, schedule: Q04DX003 (ip), vehicle: saline 101 % of control | dose: 100.0 mg/kg/injection, schedule: Q01DX009 (ip), vehicle: water 102 % of control | dose: 100.0 mg/kg/injection, schedule: Q04DX003 (ip), vehicle: saline 101 % of control | dose: 100.0 mg/kg/injection, schedule: Q04DX003 (ip), vehicle: water 93 % of control

CC(C)(SCC(N)C(=O)O)C(N)C(=O)O (stereo unspecified)
inactive: [4] 95 % of control | [5] 103 % of control | [6] 90 % of control | [7] 94 % of control | [8] 87 % of control | [9] 102 % of control

Cn1c(=O)c2c(ncn2C)n(C)c1=O
inactive: dose: 25.0 mg/kg/injection, schedule: Q01DX Z (ip), vehicle: saline 92 % of control | dose: 50.0 mg/kg/injection, schedule: Q01DX Z (ip), vehicle: saline 90 % of control | [2] 93 % of control | dose: 100.0 mg/kg/injection, schedule: Q01DX Z (ip), vehicle: saline 92 % of control | dose: 115.0 mg/kg/injection, schedule: Q01DX001 (ip), vehicle: saline 97 % of control | dose: 175.0 mg/kg/injection, schedule: Q01DX001 (ip), vehicle: saline 111 % of control | [3] 95 % of control | dose: 200.0 mg/kg/injection, schedule: Q01DX Z (ip), vehicle: saline 90 % of control | dose: 265.0 mg/kg/injection, schedule: Q01DX001 (ip), vehicle: saline 103 % of control

O=C(NCS(=O)(=O)O)OCc1ccccc1
inactive: dose: 100.0 mg/kg/injection, schedule: Q01DX001 (ip), vehicle: other 98 % of control | dose: 100.0 mg/kg/injection, schedule: Q04DX003 (ip), vehicle: other 96 % of control | dose: 200.0 mg/kg/injection, schedule: Q01DX001 (ip), vehicle: other 104 % of control | dose: 200.0 mg/kg/injection, schedule: Q04DX003 (ip), vehicle: other 102 % of control | dose: 400.0 mg/kg/injection, schedule: Q01DX001 (ip), vehicle: other 96 % of control | dose: 400.0 mg/kg/injection, schedule: Q04DX003 (ip), vehicle: other 96 % of control

NC(=S=O)c1ccccc1
inactive: [1] 93 % of control | dose: 50.0 mg/kg/injection, schedule: Q01DX009 (ip), vehicle: saline 101 % of control | [2] 97 % of control | [5] 96 % of control | [3] 93 % of control | [7] 104 % of control

O=C(Nc1cccc(C(F)(F)F)c1)c1cc(C(O)C2CCCCN2)c2cccc(C(F)(F)F)c2n1 (stereo unspecified)
inactive: dose: 100.0 mg/kg/injection, schedule: Q01DX009 (sc), vehicle: olive oil, sesame oil, peanut oil 105 % of control | dose: 100.0 mg/kg/injection, schedule: Q04DX003 (sc), vehicle: olive oil, sesame oil, peanut oil 102 % of control | dose: 200.0 mg/kg/injection, schedule: Q01DX009 (sc), vehicle: olive oil, sesame oil, peanut oil 97 % of control | dose: 200.0 mg/kg/injection, schedule: Q04DX003 (sc), vehicle: olive oil, sesame oil, peanut oil 97 % of control | dose: 400.0 mg/kg/injection, schedule: Q01DX009 (sc), vehicle: olive oil, sesame oil, peanut oil 108 % of control | dose: 400.0 mg/kg/injection, schedule: Q04DX003 (sc), vehicle: olive oil, sesame oil, peanut oil 97 % of control

CCCCC=C(C1CCCCC1)C1CCCCC1
inactive: dose: 75.0 mg/kg/injection, schedule: Q01DX001 (ip), vehicle: saline 104 % of control | dose: 75.0 mg/kg/injection, schedule: Q04DX003 (ip), vehicle: saline 92 % of control | dose: 150.0 mg/kg/injection, schedule: Q01DX001 (ip), vehicle: saline 93 % of control | dose: 150.0 mg/kg/injection, schedule: Q04DX003 (ip), vehicle: saline 101 % of control | dose: 300.0 mg/kg/injection, schedule: Q01DX001 (ip), vehicle: saline 91 % of control | dose: 300.0 mg/kg/injection, schedule: Q04DX003 (ip), vehicle: saline 100 % of control

O=C(Nc1cccc(C(F)(F)F)c1)c1ccco1
inactive: dose: 100.0 mg/kg/injection, schedule: Q01DX009 (ip), vehicle: Klucel (hydroxypropylcellulose) (HPC) 93 % of control | dose: 100.0 mg/kg/injection, schedule: Q04DX002 (ip), vehicle: Klucel (hydroxypropylcellulose) (HPC) 106 % of control | dose: 200.0 mg/kg/injection, schedule: Q01DX009 (ip), vehicle: Klucel (hydroxypropylcellulose) (HPC) 96 % of control | dose: 200.0 mg/kg/injection, schedule: Q04DX002 (ip), vehicle: Klucel (hydroxypropylcellulose) (HPC) 95 % of control | dose: 400.0 mg/kg/injection, schedule: Q01DX009 (ip), vehicle: Klucel (hydroxypropylcellulose) (HPC) 109 % of control | dose: 400.0 mg/kg/injection, schedule: Q04DX002 (ip), vehicle: Klucel (hydroxypropylcellulose) (HPC) 104 % of control

C=CCC/C(=N\NC(N)=O)c1ccccc1
inactive: dose: 75.0 mg/kg/injection, schedule: Q01DX001 (ip), vehicle: acetone 99 % of control | dose: 150.0 mg/kg/injection, schedule: Q01DX001 (ip), vehicle: acetone 91 % of control | dose: 300.0 mg/kg/injection, schedule: Q01DX001 (ip), vehicle: acetone 110 % of control

COc1ccc(C(C)=O)c(OC)c1
inactive: [4] 98 % of control | [5] 112 % of control | [6] 98 % of control | [7] 94 % of control | [8] 98 % of control | [9] 102 % of control

ClCCN(CCCl)c1ccc(-n2cnc3c(Cl)ncnc32)cc1
inactive: dose: 32.0 mg/kg/injection, schedule: Q01DX015 (ip), vehicle: carboxymethylcellulose (CMC) 96 % of control | dose: 64.0 mg/kg/injection, schedule: Q01DX015 (ip), vehicle: carboxymethylcellulose (CMC) 96 % of control | dose: 128.0 mg/kg/injection, schedule: Q01DX015 (ip), vehicle: carboxymethylcellulose (CMC) 97 % of control | dose: 256.0 mg/kg/injection, schedule: Q01DX015 (ip), vehicle: carboxymethylcellulose (CMC) 105 % of control

CC(=O)Nc1ccc(/C=C/c2ccc3ccccc3[n+]2C)cc1
inactive: dose: 25.0 mg/kg/injection, schedule: Q01DX009 (ip), vehicle: saline with Tween-80 97 % of control | dose: 25.0 mg/kg/injection, schedule: Q04DX003 (ip), vehicle: saline with Tween-80 101 % of control | [1] 106 % of control | dose: 50.0 mg/kg/injection, schedule: Q04DX003 (ip), vehicle: saline with Tween-80 98 % of control | dose: 100.0 mg/kg/injection, schedule: Q04DX003 (ip), vehicle: saline with Tween-80 94 % of control

C=CCNC(=S)Nc1cccc(C(C)O)c1 (stereo unspecified)
inactive: [5] 107 % of control | dose: 100.0 mg/kg/injection, schedule: Q04DX002 (ip), vehicle: saline 89 % of control | [7] 112 % of control | dose: 200.0 mg/kg/injection, schedule: Q04DX002 (ip), vehicle: saline 89 % of control | dose: 400.0 mg/kg/injection, schedule: Q04DX002 (ip), vehicle: saline 96 % of control
